Data on 16 compounds can be found in publication PMC12005767 (Advanced Science, 2025).

The structures appear in SMILES notation.

Assay [1] concerns the target T1, HDAC11 (Homo sapiens, UniProt Q96DB2).
T1 construct: The HDAC11 enzyme was a full‐length human recombinant HDAC enzyme sourced from BPS Bioscience; purchased BPS Bioscience
T1 sequence (Q96DB2 1-347): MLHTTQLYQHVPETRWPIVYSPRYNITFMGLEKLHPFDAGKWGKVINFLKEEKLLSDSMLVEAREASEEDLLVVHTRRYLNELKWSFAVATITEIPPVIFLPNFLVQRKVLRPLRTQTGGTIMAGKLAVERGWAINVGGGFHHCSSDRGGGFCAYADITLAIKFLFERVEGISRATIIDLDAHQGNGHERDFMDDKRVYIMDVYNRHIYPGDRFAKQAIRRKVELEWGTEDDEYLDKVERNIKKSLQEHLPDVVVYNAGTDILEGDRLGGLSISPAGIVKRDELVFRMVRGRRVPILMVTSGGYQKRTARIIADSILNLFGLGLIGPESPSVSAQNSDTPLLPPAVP
The experiment in a line: HDAC11 inhibition fluorescence assay (ETDKmyr substrate). The format is biochemical. As to conditions: for IC50: mean ± SEM. On the procedure: The HDAC11 enzyme was a full‐length human recombinant HDAC enzyme sourced from BPS Bioscience. In detail, a total of 20 µL of recombinant HDAC11 enzyme solution (working concentration = 1 × 10^−9 M) was combined with varying concentrations of the test compound (20 µL) in a 96‐well black plate. The mixture was then incubated at a temperature of 30 °C for a duration of 1 h. Subsequently, 10 µL of the specific fluorogenic substrate (ETDKacyl‐Kmyr) was added. Following 2 h incubation at 30 °C, the catalytic reaction was ceased by adding 10 µL of a developer solution consisting of 2 mg mL^−1 trypsin and 5 × 10^−6 M trichostatin A (TSA). After a standing period of 6 h, the fluorescence intensity was assessed using a microplate reader at excitation and emission wavelengths of 360 and 460 nm, respectively. The inhibition ratios were calculated based on the fluorescence intensity readings of the test wells compared to the control wells. GraphPad Prism 8.0 software was employed to generate IC 50 curves and determine the corresponding IC 50 values utilizing the “log(inhibitor) versus normalized response‐variable slope” function.

The target in assay [2] is T2, HDAC1 (Homo sapiens, UniProt Q13547).
T2 construct: purchased BPS Bioscience
T2 sequence (Q13547 whole entry): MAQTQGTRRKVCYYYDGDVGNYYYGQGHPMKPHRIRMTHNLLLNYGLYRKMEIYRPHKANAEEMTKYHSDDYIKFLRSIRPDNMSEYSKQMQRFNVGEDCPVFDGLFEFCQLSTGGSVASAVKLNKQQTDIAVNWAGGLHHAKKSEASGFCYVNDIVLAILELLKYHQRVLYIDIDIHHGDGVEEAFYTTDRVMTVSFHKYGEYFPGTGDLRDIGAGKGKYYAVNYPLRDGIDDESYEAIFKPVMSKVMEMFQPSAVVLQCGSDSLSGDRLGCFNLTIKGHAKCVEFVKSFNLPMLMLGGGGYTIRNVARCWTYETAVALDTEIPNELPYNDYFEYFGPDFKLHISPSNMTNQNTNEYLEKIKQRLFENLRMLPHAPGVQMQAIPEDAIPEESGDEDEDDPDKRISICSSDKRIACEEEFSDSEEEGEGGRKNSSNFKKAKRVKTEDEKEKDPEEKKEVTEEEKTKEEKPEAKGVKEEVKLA
The experiment in a line: In vitro HDACs inhibition fluorescence assay, HDAC1. The format is biochemical. As to conditions: mean ± SEM. On the procedure:
(§1) In Vitro HDACs Inhibition Fluorescence Assay: For the inhibitory activity against HDAC1‐10, enzymes were also procured from BPS Bioscience. The in vitro […] inhibition assays were conducted following the established method described previously.^[ [45] ^] The working concentrations of HDAC1‐10 were 4 × 10^−9 M. The fluorogenic substrate of HDAC1, 2, 3, and 6 was Boc‐Lys (acetyl)‐AMC, and the substrate of HDAC4, 5, 7, 8, 9, and 10 was Boc‐Lys (trifluoroacetyl) AMC. The developer solution consists of 30 mg mL^−1 trypsin and 5 × 10^−6 M TSA. A standing period of 30 min was sufficient before assessing the fluorescence intensity.

The target in assay [3] is T2, HDAC1. More on the design: method as in PMID 27754681. The note with it: prior research; cited from earlier work.
Assay [4] concerns the target T3, HDAC3 (Homo sapiens, UniProt O15379).
T3 construct: purchased BPS Bioscience
Description: In vitro HDACs inhibition fluorescence assay, HDAC3. Type of assay: biochemical. The note with it: mean ± SEM. On the procedure: as §1

T3 sequence (O15379 whole entry): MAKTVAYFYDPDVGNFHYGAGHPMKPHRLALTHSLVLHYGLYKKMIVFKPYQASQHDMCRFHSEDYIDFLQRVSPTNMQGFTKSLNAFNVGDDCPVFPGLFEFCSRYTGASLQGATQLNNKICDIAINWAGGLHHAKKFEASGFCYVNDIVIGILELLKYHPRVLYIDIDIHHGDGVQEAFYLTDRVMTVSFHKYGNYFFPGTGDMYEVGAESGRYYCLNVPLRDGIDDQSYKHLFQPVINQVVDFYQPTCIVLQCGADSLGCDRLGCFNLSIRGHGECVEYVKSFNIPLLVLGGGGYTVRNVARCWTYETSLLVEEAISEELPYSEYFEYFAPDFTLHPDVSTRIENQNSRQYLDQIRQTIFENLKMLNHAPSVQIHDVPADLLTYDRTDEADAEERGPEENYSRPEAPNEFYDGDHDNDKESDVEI
T3 sequence (Q9Y618 395-489 partner limits assumed): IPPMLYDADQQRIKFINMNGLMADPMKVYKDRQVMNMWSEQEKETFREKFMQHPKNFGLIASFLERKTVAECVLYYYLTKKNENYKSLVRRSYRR

One may read the IC50 as the midpoint of a concentration-inhibition curve. Read a high IC50 as lower potency. On to `CCCCCNNC(=O)c1ccc(CNC(=O)c2ccccc2)cc1` [A2], for which, in assay [1], the “inhibitory activity against HDAC11 (in words)” value is reported as “moderate inhibitory activity” and the concentration for half-maximal inhibition (IC50) is 6740 ± 324 nM. Also, it took 45.6 ± 2.36 nM to reach half-maximal inhibition in assay [2] (IC50). In addition, in assay [3], the “IC50 for HDAC1 (in words)” value is recorded as “low nanomolar”.
In assay [1], `COCCOCCCCCCNNC(=O)c1ccc(CNC(=O)c2ccccc2)cc1` [B7] came in with an IC50 of 2440 ± 223 nM.
On to `COCCCCCCCCCNNC(=O)c1ccc(CNC(=O)c2ccccc2)cc1` [B2], for which the IC50 in assay [1] amounted to 1550 ± 116 nM.
As to `CCCCCCCNNC(=O)c1ccc(CNC(=O)c2ccccc2)cc1` [A4], the results for the half-inhibitory concentration (IC50) in assay [1], in assay [2] and in assay [4] were 3310 ± 157 nM, 415 ± 153 nM and 6360 ± 324 nM, respectively.
For `CCCCCCCCCNNC(=O)c1ccc(CNC(=O)c2ccccc2)cc1` [A6], the IC50 in assay [1] was 504 ± 45.5 nM; in assay [2], more than 10000 nM; in assay [4] it was 2050 ± 39.5 nM.
As for `CCCCNNC(=O)c1ccc(CNC(=O)c2ccccc2)cc1` [A1], in assay [1], the “inhibitory activity against HDAC11 (in words)” value is reported as “moderate inhibitory activity” and the half-inhibitory concentration (IC50) stood at 3250 ± 241 nM. Moreover, in assay [2], the IC50 was found to be 20.5 ± 1.4 nM. Further, the “IC50 for HDAC1 (in words)” value in assay [3] is “low nanomolar”.
For the compound `CCCCCCCCNNC(=O)c1ccc(CNC(=O)c2ccccc2)cc1` [A5], the IC50 in assay [1] was found to be 942 ± 94.1 nM; in assay [2], 2050 ± 27.5 nM; in assay [4], 501 ± 2.4 nM.
`CCOCCCCCCCCNNC(=O)c1ccc(CNC(=O)c2ccccc2)cc1` [B3] came in with an IC50 in assay [1] of 494 ± 41.9 nM.
As to `CCCCCCCCCCCCNNC(=O)c1ccc(CNC(=O)c2ccccc2)cc1` [A9], the IC50 in assay [1] was 132 ± 4.29 nM; in assay [2] it was more than 10000 nM; in assay [4] it was more than 10000 nM.
In the case of `CCCCCCNNC(=O)c1ccc(CNC(=O)c2ccccc2)cc1` [A3], the half-inhibitory concentration (IC50) is more than 10000 nM in assay [1], 34.5 ± 3.15 nM in assay [2] and 6.79 ± 0.19 nM in assay [4].
For the compound `CCCCCCCCCCNNC(=O)c1ccc(CNC(=O)c2ccccc2)cc1` [A7], the values for the IC50 in assay [1], in assay [2] and in assay [4] were 416 ± 41.1 nM, more than 10000 nM and more than 10000 nM, respectively.
`CCCCCCCCCCCCCCCCNNC(=O)c1cccs1` [SIS17, reference compound]: the IC50 in assay [1] is 243 ± 12.3 nM; in assay [2], more than 10000 nM; in assay [4], more than 10000 nM.
`CCCCOCCCCCCNNC(=O)c1ccc(CNC(=O)c2ccccc2)cc1` [B5] yielded an IC50 in assay [1] of 357 ± 16.5 nM.
In assay [1], `CCOCCOCCCCCNNC(=O)c1ccc(CNC(=O)c2ccccc2)cc1` [B8] had an IC50 of 801 ± 49.5 nM.
Same read-out and setting: with `CCCOCCCCCCCNNC(=O)c1ccc(CNC(=O)c2ccccc2)cc1` [B4] the figure was 257 ± 12.1 nM; with `O=C(NCc1ccc(C(=O)NNCCCCCCCCCCO)cc1)c1ccccc1` [B1], 664 ± 64.9 nM.
